Experimental data: patent US10131652B2, “Pyrimidinyloxy benzene derivatives as herbicides” (E. I. DU PONT DE NEMOURS AND COMPANY, priority 2014, dated 2018)
Read-outs that look alike come from different tables or passages of the source.

How the values were obtained:
Assay in all cases: Test F pre-/postemergence plant response
Type in all cases: in vivo
[1] = tested on: Italian ryegrass (Lolium multiflorum); conditions: Lolium multiflorum, scale 0 to 100, read-out: Plant response rating, Ryegrass, Italian; for pest or weed control at 16 g/ha: 16 g ai/ha; for pest or weed control at 31 g/ha: 31 g ai/ha; for pest or weed control at 125 g/ha: 125 g ai/ha
Procedure, shortened: (§1)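 Herbicidal effect judged by eye against controls, scored 0–100 (complete control = 100). Applications: pre-emergence onto seeded silt loam, post-emergence onto 2–18 cm seedlings; greenhouse, 14–21 days.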

[2] = tested on: arrowleaf sida (Sida rhombifolia); conditions: Sida rhombifolia, scale 0 to 100, read-out: Plant response rating, Arrowleaf Sida
Procedure, shortened: as §1

[3] = tested on: barnyardgrass (Echinochloa crus-galli); conditions: Echinochloa crus-galli, scale 0 to 100, read-out: Plant response rating, Barnyardgrass
Procedure, shortened: as §1

[4] = tested on: hairy beggarticks (Bidens pilosa); conditions: Bidens pilosa, scale 0 to 100, read-out: Plant response rating, Beggarticks
Procedure, shortened: as §1

kochia (Kochia scoparia) = conditions: Bassia scoparia, pre-emergence, scale 0 to 100, read-out: Plant response rating, Kochia
Procedure, shortened: as §1

[5] = tested on: large (Lg) crabgrass (Digitaria sanguinalis); conditions: Digitaria sanguinalis, pre-emergence, scale 0 to 100, read-out: Plant response rating, Crabgrass, Large
Procedure, shortened: as §1

[6] = tested on: nightshade (eastern black nightshade, Solanum ptycanthum); conditions: Solanum, pre-emergence, scale 0 to 100, read-out: Plant response rating, Nightshade
Procedure, shortened: as §1

[7] = tested on: ragweed (common ragweed, Ambrosia elatior); conditions: Ambrosia artemisiifolia, pre-emergence, scale 0 to 100, read-out: Plant response rating, Ragweed
Procedure, shortened: as §1

[8] = tested on: surinam grass (Brachiaria decumbens); conditions: Urochloa decumbens, pre-emergence, scale 0 to 100, read-out: Plant response rating, Surinam Grass
Procedure, shortened: as §1

[9] = tested on: velvetleaf (Abutilon theophrasti); conditions: Abutilon theophrasti, pre-emergence, scale 0 to 100, read-out: Plant response rating, Velvetleaf
Procedure, shortened: as §1

[10] = tested on: yellow nutsedge (Cyperus esculentus); conditions: Cyperus, pre-emergence, scale 0 to 100, read-out: Plant response rating, Nutsedge, Yellow
Procedure, shortened: as §1

[11] = post-emergence, 8 g ai/ha Postemergence
[12] = pre-emergence, 8 g ai/ha Preemergence
[13] = post-emergence, 16 g ai/ha Postemergence
[14] = post-emergence, 31 g ai/ha Postemergence
[15] = post-emergence, 62 g ai/ha Postemergence
[16] = post-emergence, 125 g ai/ha Postemergence
[17] = pre-emergence, 16 g ai/ha Preemergence
[18] = pre-emergence, 31 g ai/ha Preemergence
[19] = pre-emergence, 62 g ai/ha Preemergence
[20] = pre-emergence, 125 g ai/ha Preemergence

FC(F)c1cc(-c2ccccc2Oc2ncc(Br)cn2)no1 [Compound 62, 5-bromo-2-[2-[5-(difluoromethyl)-3-isoxazolyl]phenoxy]pyrimidine]
98%: pest or weed control at 62 g/ha [2, 15] | pest or weed control at 125 g/ha [2, 16] | pest or weed control at 125 g/ha ([5]; 125 g ai/ha Preemergence) | pest or weed control at 62 g/ha ([6]; Preemergence)
20%: pest or weed control at 16 g/ha [2, 17] | pest or weed control at 31 g/ha [3, 14] | pest or weed control at 62 g/ha [3, 15] | pest or weed control at 125 g/ha [3, 16] | pest or weed control at 31 g/ha (kochia (Kochia scoparia); 31 g ai/ha, Preemergence) | pest or weed control at 16 g/ha ([7]; 16 g ai/ha Preemergence)
100%: pest or weed control at 125 g/ha [2, 20] | pest or weed control at 125 g/ha ([6]; 125 g ai/ha Preemergence) | pest or weed control at 125 g/ha ([9]; 125 g ai/ha Preemergence) | pest or weed control at 62 g/ha ([9]; Preemergence)
80%: pest or weed control at 16 g/ha [2, 13] | pest or weed control at 125 g/ha [4, 16]
70%: pest or weed control at 31 g/ha [2, 18] | pest or weed control at 62 g/ha ([5]; 62 g ai/ha Preemergence) | pest or weed control at 31 g/ha ([6]; 31 g ai/ha Preemergence)
50%: pest or weed control at 62 g/ha [4, 15]
0%: pest or weed control at 8 g/ha [1, 11] | pest or weed control at 16 g/ha ([1]; post-emergence, Postemergence) | pest or weed control at 31 g/ha ([1]; post-emergence, Postemergence) | pest or weed control at 8 g/ha [1, 12] | pest or weed control at 16 g/ha ([1]; pre-emergence, Preemergence) | pest or weed control at 31 g/ha ([1]; pre-emergence, Preemergence) | pest or weed control at 62 g/ha ([1]; pre-emergence, Preemergence) | pest or weed control at 8 g/ha [2, 12] | pest or weed control at 8 g/ha [3, 12] | pest or weed control at 16 g/ha [3, 17] | pest or weed control at 31 g/ha [3, 18] | pest or weed control at 62 g/ha [3, 19] | pest or weed control at 8 g/ha [4, 12] | pest or weed control at 16 g/ha [4, 17] | pest or weed control at 31 g/ha [4, 18] | pest or weed control at 62 g/ha [4, 19] | pest or weed control at 125 g/ha [4, 20] | pest or weed control at 8 g/ha ([5]; 8 g ai/ha Preemergence) | pest or weed control at 16 g/ha ([5]; 16 g ai/ha Preemergence) | pest or weed control at 8 g/ha ([6]; 8 g ai/ha Preemergence) | pest or weed control at 16 g/ha ([6]; 16 g ai/ha Preemergence) | pest or weed control at 8 g/ha ([7]; 8 g ai/ha Preemergence) | pest or weed control at 8 g/ha ([8]; 8 g ai/ha Preemergence) | pest or weed control at 16 g/ha ([8]; 16 g ai/ha Preemergence) | pest or weed control at 8 g/ha ([9]; 8 g ai/ha Preemergence) | pest or weed control at 8 g/ha ([10]; 8 g ai/ha Preemergence) | pest or weed control at 16 g/ha ([10]; 16 g ai/ha Preemergence) | pest or weed control at 31 g/ha ([10]; 31 g ai/ha Preemergence) | pest or weed control at 125 g/ha ([10]; 125 g ai/ha Preemergence) | pest or weed control at 62 g/ha ([10]; Preemergence)
5%: pest or weed control at 8 g/ha [4, 11] | pest or weed control at 16 g/ha [4, 13]
95%: pest or weed control at 31 g/ha [2, 14] | pest or weed control at 62 g/ha [2, 19] | pest or weed control at 125 g/ha (kochia (Kochia scoparia); 125 g ai/ha, Preemergence)
15%: pest or weed control at 16 g/ha [3, 13] | pest or weed control at 31 g/ha ([8]; 31 g ai/ha Preemergence) | pest or weed control at 62 g/ha ([8]; Preemergence)
25%: pest or weed control at 125 g/ha [3, 20] | pest or weed control at 31 g/ha ([5]; 31 g ai/ha Preemergence) | pest or weed control at 31 g/ha ([7]; 31 g ai/ha Preemergence)
40%: pest or weed control at 125 g/ha ([1]; pre-emergence, Preemergence) | pest or weed control at 62 g/ha ([7]; Preemergence)
65%: pest or weed control at 8 g/ha [2, 11]
75%: pest or weed control at 31 g/ha ([9]; 31 g ai/ha Preemergence)
10%: pest or weed control at 62 g/ha ([1]; post-emergence, 62 g ai/ha, Postemergence) | pest or weed control at 125 g/ha ([1]; post-emergence, Postemergence) | pest or weed control at 8 g/ha [3, 11] | pest or weed control at 31 g/ha [4, 14] | pest or weed control at 8 g/ha (kochia (Kochia scoparia); 8 g ai/ha Preemergence) | pest or weed control at 125 g/ha ([8]; 125 g ai/ha Preemergence)
35%: pest or weed control at 62 g/ha (kochia (Kochia scoparia); Preemergence) | pest or weed control at 125 g/ha ([7]; 125 g ai/ha Preemergence) | pest or weed control at 16 g/ha ([9]; 16 g ai/ha Preemergence)
